Some test systems named below: BT-549 breast; HL-60(TB) leukemia; HS 578T breast; HT29 colon; IGROV1 ovarian; MDA-MB-231 breast; MDA-MB-435; SF-268 CNS; SNB-19 CNS; A498 renal.
Holding throughout (test): NCI-60 cell line screen, 48 h

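Five compound concentrations were applied to cells in 96-well plates for 48 hours; endpoints were derived by simple linear interpolation of the resulting dose-response curve. At the GI50, growth is halved. The concentration for full growth arrest is given as TGI.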

With `CC(C)(C)NCc1cc(C(C)(C)C)cc(-c2ccc(Cl)cc2)c1O`, the TGI worked out at 27.9 µM in the assay with BT-549 breast; 23.4 µM with HL-60(TB) leukemia; 29 µM with HS 578T breast; 53.2 µM with HT29 colon; 24.6 µM with IGROV1 ovarian; 24.8 µM in the assay on MDA-MB-231 breast. The TGI stood at 25.2 µM in the assay with MDA-MB-435, 30.8 µM with SF-268 CNS and 30.5 µM with SNB-19 CNS.

As to `COc1cc2c3c(n(CCCNCCN)c(=O)c2cc1OC)-c1cc2c(cc1C3=O)OCO2`, the GI50 was 1.56 µM in the assay on BT-549 breast; 0.682 µM with HL-60(TB) leukemia; 0.419 µM with HS 578T breast; 1.08 µM with HT29 colon; 0.839 µM in the assay with IGROV1 ovarian; 0.343 µM in the assay with MDA-MB-231 breast. Also, the results for the GI50 in the assay with MDA-MB-435, in the assay with SF-268 CNS and with SNB-19 CNS were 1.02 µM, 0.776 µM and 40.8 µM, respectively. The TGI in the assay on BT-549 breast came out at 9.7 µM; with HL-60(TB) leukemia, 3.66 µM; in the assay on HS 578T breast, 4.76 µM; in the assay with HT29 colon, 10.4 µM; in the assay with MDA-MB-231 breast it was 2.48 µM; in the assay on MDA-MB-435, 4.56 µM. Besides, the TGI in the assay with SF-268 CNS was greater than 31.9 µM; in the assay with SNB-19 CNS, greater than 100 µM.

Take `Clc1ccc2[nH]cc(-c3nc(-c4c[nH]c5ncccc45)cs3)c2c1`: the GI50 in the assay with A498 renal was 2.08 µM; with BT-549 breast, 4.85 µM; with HL-60(TB) leukemia, 2.89 µM; in the assay on HS 578T breast, 7.59 µM; with IGROV1 ovarian, 3.04 µM; with MDA-MB-231 breast it was 2.2 µM. Further, the values for the GI50 in the assay with MDA-MB-435, in the assay on SF-268 CNS and with SNB-19 CNS were 3.44 µM, 5.06 µM and 5.97 µM, respectively. Besides, the TGI in the assay with A498 renal was 10.4 µM; in the assay on BT-549 breast, 17.1 µM; in the assay on HL-60(TB) leukemia, 45.6 µM; in the assay with HS 578T breast, greater than 100 µM; in the assay on IGROV1 ovarian it was 28.6 µM; in the assay on MDA-MB-231 breast it was 17.1 µM. In addition, the TGI in the assay with MDA-MB-435 is 14.8 µM; in the assay with SF-268 CNS it was 32.4 µM; in the assay with SNB-19 CNS it was 43.9 µM.

In the case of `Cc1nc2sc(C(=O)Nc3cccc4ccccc34)c(N)c2cc1C(=O)c1ccccc1`, the GI50 in the assay with A498 renal is 0.15 µM; in the assay with BT-549 breast, 1.87 µM; in the assay with HL-60(TB) leukemia, 1.45 µM; in the assay on HS 578T breast it was 1.3 µM; in the assay on HT29 colon, 1.81 µM; with IGROV1 ovarian it was 1.8 µM. For the same compound, the GI50 is 2.19 µM with MDA-MB-231 breast, 3.54 µM with SF-268 CNS and 2.41 µM with SNB-19 CNS. Further, the TGI was 1.17 µM with A498 renal; greater than 50 µM with BT-549 breast; 4.31 µM in the assay on HL-60(TB) leukemia; greater than 50 µM in the assay on HS 578T breast; greater than 50 µM in the assay with HT29 colon; greater than 50 µM in the assay with IGROV1 ovarian. Further, the TGI with MDA-MB-231 breast, with SF-268 CNS and in the assay on SNB-19 CNS was greater than 50 µM in each case.

On to `CN(C)N1C(=O)c2ccccc2NC1c1ccccc1` (stereo not given), for which the TGI with A498 renal, in the assay with BT-549 breast, in the assay with HS 578T breast, with HT29 colon, in the assay with IGROV1 ovarian and in the assay with MDA-MB-231 breast was greater than 100 µM throughout. Further, the TGI with MDA-MB-435, with SF-268 CNS and in the assay with SNB-19 CNS was greater than 100 µM each time.

For the compound `O=S(=O)(NCC1CCC(CNc2ccc(Cl)cc2)CC1)c1ccc(-c2ccccc2)cc1` (stereo not given), the GI50 in the assay with BT-549 breast was greater than 50 µM; in the assay with HL-60(TB) leukemia, greater than 50 µM; with HS 578T breast, 12.7 µM; in the assay on IGROV1 ovarian, greater than 50 µM; in the assay with MDA-MB-231 breast, 15.7 µM; in the assay with MDA-MB-435, greater than 50 µM. Besides, the GI50 with SF-268 CNS and in the assay with SNB-19 CNS was greater than 50 µM throughout. Moreover, the TGI in the assay with BT-549 breast, in the assay on HL-60(TB) leukemia, in the assay on HS 578T breast, in the assay with IGROV1 ovarian, in the assay on MDA-MB-231 breast and with MDA-MB-435 was greater than 50 µM each time. Besides, the TGI with SF-268 CNS and in the assay with SNB-19 CNS was greater than 50 µM throughout.

For the compound `Nc1ccc2c(c1)NCCN2`, the TGI was greater than 100 µM in the assay on BT-549 breast; 89.4 µM with HL-60(TB) leukemia; greater than 100 µM in the assay with HS 578T breast; greater than 100 µM in the assay on HT29 colon; greater than 100 µM in the assay with IGROV1 ovarian; greater than 100 µM in the assay on MDA-MB-231 breast. Further, the TGI in the assay with MDA-MB-435, with SF-268 CNS and with SNB-19 CNS was greater than 100 µM each time.

In the case of `C1CSCCCSCCSCCCSC1`, the TGI with A498 renal, with BT-549 breast, with HS 578T breast, in the assay on HT29 colon, with IGROV1 ovarian and in the assay on MDA-MB-231 breast was greater than 100 µM in each case. Also, the TGI in the assay on MDA-MB-435, in the assay on SF-268 CNS and in the assay with SNB-19 CNS was greater than 100 µM each time.
